System: rabbits
Test: Tissue proton T1 and T2 relaxation times 15 min after intravenous administration (dose-response)
Assay type: in vivo
Conditions: for T1 relaxation time / T2 relaxation time: 10 mHz RADX; for Approximate ED50, intravenous dose to reduce tissue T1 by 50% / Approximate ED50, intravenous dose to reduce tissue T2 by 50%: 15 min; for effect on hepatic and biliary T1 relaxation times: intravenous administration, Trihydrate
Procedure: All experiments employing the complex dihydrogen bis(N-[N′-(2,6-dimethylphenyl)carbamoylmethyl]iminodiaceto)manganese (II) trihydrate were conducted following intravenous administration to rabbits. A 10 mM solution of the complex was used in these studies. Rabbits were anesthetized with ketamine/xylazine prior to treatment. The results given were obtained with a 10 mHz RADX proton spin analyzer.
Dose-response experiments were conducted on rabbits following intravenous injection of 0.01-0.10 mmol of the complex/kg. […]

[1] = Lung, 15 min after 0.03 mmol/kg i.v., rabbits
[2] = Lung, 15 min after 0.08 mmol/kg i.v., rabbits
[3] = Lung, 15 min after 0.10 mmol/kg i.v., 1 rabbit
[4] = Pancreas, 15 min after 0.01 mmol/kg i.v., rabbits
[5] = Pancreas, 15 min after 0.03 mmol/kg i.v., rabbits
[6] = Pancreas, 15 min after 0.08 mmol/kg i.v., rabbits
[7] = Pancreas, 15 min after 0.10 mmol/kg i.v., 1 rabbit
[8] = Renal Cortex, 15 min after 0.01 mmol/kg i.v., rabbits
[9] = Renal Cortex, 15 min after 0.03 mmol/kg i.v., rabbits
[10] = Renal Cortex, 15 min after 0.08 mmol/kg i.v., rabbits
[11] = Renal Cortex, 15 min after 0.10 mmol/kg i.v., 1 rabbit
[12] = Renal Medulla, 15 min after 0.01 mmol/kg i.v., rabbits
[13] = Renal Medulla, 15 min after 0.03 mmol/kg i.v., rabbits
[14] = Renal Medulla, 15 min after 0.08 mmol/kg i.v., rabbits
[15] = Renal Medulla, 15 min after 0.10 mmol/kg i.v., 1 rabbit
[16] = Skeletal Muscle, 15 min after 0.01 mmol/kg i.v., rabbits
[17] = Skeletal Muscle, 15 min after 0.03 mmol/kg i.v., rabbits
[18] = Skeletal Muscle, 15 min after 0.08 mmol/kg i.v., rabbits
[19] = Skeletal Muscle, 15 min after 0.10 mmol/kg i.v., 1 rabbit
[20] = Small Intestine, 15 min after 0.01 mmol/kg i.v., rabbits
[21] = Small Intestine, 15 min after 0.03 mmol/kg i.v., rabbits
[22] = Small Intestine, 15 min after 0.08 mmol/kg i.v., rabbits
[23] = Small Intestine, 15 min after 0.10 mmol/kg i.v., 1 rabbit
[24] = Spleen, 15 min after 0.01 mmol/kg i.v., rabbits
[25] = Spleen, 15 min after 0.03 mmol/kg i.v., rabbits
[26] = Spleen, 15 min after 0.08 mmol/kg i.v., rabbits
[27] = Spleen, 15 min after 0.10 mmol/kg i.v., 1 rabbit
[28] = Stomach, 15 min after 0.01 mmol/kg i.v., rabbits
[29] = Stomach, 15 min after 0.03 mmol/kg i.v., rabbits
[30] = Stomach, 15 min after 0.08 mmol/kg i.v., rabbits
[31] = Stomach, 15 min after 0.10 mmol/kg i.v., 1 rabbit

Work on Cc1cccc(C)c1NC(=O)CN(CC(=O)[O-])CC(=O)O.Cc1cccc(C)c1NC(=O)CN(CC(=O)[O-])CC(=O)O.O.O.O.[Mn+2] [Example 2] yielded a T1 relaxation time [1] of 352 ms, a T2 relaxation time [1] of 100 ms and a T1 relaxation time [2] of 222 ms. It also gave a T2 relaxation time [2] of 67 ms, a T1 relaxation time [3] of 144 ms and a T2 relaxation time [3] of 62 ms. For the same compound, the “Approximate ED50, intravenous dose to reduce tissue T1 by 50%” value (Lung, rabbits) was 0.075 mmol/kg, the “Approximate ED50, intravenous dose to reduce tissue T2 by 50%” value (Lung, rabbits) was 0.15 mmol/kg and the T1 relaxation time [4] was 225 ms. For the same compound, the T2 relaxation time [4] was 66 ms, the T1 relaxation time [5] was 104 ms and the T2 relaxation time [5] was 118 ms. For the same compound, the T1 relaxation time [6] was 101 ms, the T2 relaxation time [6] was 70 ms and the T1 relaxation time [7] was 149 ms. The T2 relaxation time [7] was 69 ms, the “Approximate ED50, intravenous dose to reduce tissue T1 by 50%” value (Pancreas, rabbits) was 0.064 mmol/kg and the T1 relaxation time [8] was 236 ms. For the same compound, the T2 relaxation time [8] was 77 ms, the T1 relaxation time [9] was 164 ms and the T2 relaxation time [9] was 63 ms. The T1 relaxation time [10] was 77 ms, the T2 relaxation time [10] was 42 ms and the T1 relaxation time [11] was 71 ms. For the same compound, the T2 relaxation time [11] was 37 ms, the T1 relaxation time [12] was 435 ms and the T2 relaxation time [12] was 122 ms. The T1 relaxation time [13] was 218 ms, the T2 relaxation time [13] was 95 ms and the T1 relaxation time [14] was 124 ms. It also gave a T2 relaxation time [14] of 74 ms, a T1 relaxation time [15] of 35 ms and a T2 relaxation time [15] of 21 ms. The “Approximate ED50, intravenous dose to reduce tissue T1 by 50%” value (Renal cortex, rabbits) was 0.041 mmol/kg, the “Approximate ED50, intravenous dose to reduce tissue T2 by 50%” value (Renal cortex, rabbits) was 0.14 mmol/kg and the “Approximate ED50, intravenous dose to reduce tissue T1 by 50%” value (Renal medulla, rabbits) was 0.030 mmol/kg. The “Approximate ED50, intravenous dose to reduce tissue T2 by 50%” value (Renal medulla, rabbits) was 0.90 mmol/kg, the T1 relaxation time [16] was 364 ms and the T2 relaxation time [16] was 35 ms. For the same compound, the T1 relaxation time [17] was 304 ms, the T2 relaxation time [17] was 38 ms and the T1 relaxation time [18] was 255 ms. It also gave a T2 relaxation time [18] of 39 ms, a T1 relaxation time [19] of 205 ms and a T2 relaxation time [19] of 38 ms. For the same compound, the “Approximate ED50, intravenous dose to reduce tissue T1 by 50%” value (Skeletal muscle, rabbits) was 0.35 mmol/kg, the T1 relaxation time [20] was 219 ms and the T2 relaxation time [20] was 73 ms. For the same compound, the T1 relaxation time [21] was 150 ms, the T2 relaxation time [21] was 60 ms and the T1 relaxation time [22] was 130 ms. For the same compound, the T2 relaxation time [22] was 50 ms, the T1 relaxation time [23] was 141 ms and the T2 relaxation time [23] was 45 ms. The “Approximate ED50, intravenous dose to reduce tissue T1 by 50%” value (Small Intestine, rabbits) was 0.051 mmol/kg, the “Approximate ED50, intravenous dose to reduce tissue T2 by 50%” value (Small Intestine, rabbits) was 0.27 mmol/kg and the T1 relaxation time [24] was 346 ms. The T2 relaxation time [24] was 73 ms, the T1 relaxation time [25] was 260 ms and the T2 relaxation time [25] was 70 ms. The T1 relaxation time [26] was 195 ms, the T2 relaxation time [26] was 65 ms and the T1 relaxation time [27] was 202 ms. For the same compound, the T2 relaxation time [27] was 71 ms, the “Approximate ED50, intravenous dose to reduce tissue T1 by 50%” value (Spleen, rabbits) was 0.085 mmol/kg and the T1 relaxation time [28] was 287 ms. For the same compound, the T2 relaxation time [28] was 56 ms, the T1 relaxation time [29] was 199 ms and the T2 relaxation time [29] was 53 ms. For the same compound, the T1 relaxation time [30] was 122 ms, the T2 relaxation time [30] was 43 ms and the T1 relaxation time [31] was 121 ms. The T2 relaxation time [31] was 47 ms, the “Approximate ED50, intravenous dose to reduce tissue T1 by 50%” value (Stomach, rabbits) was 0.068 mmol/kg and the “Approximate ED50, intravenous dose to reduce tissue T2 by 50%” value (Stomach, rabbits) was 0.93 mmol/kg. For the same compound, the “effect on hepatic and biliary T1 relaxation times” value (listed as dihydrogen bis(N-[N′-(2,6-dimethylphenyl)carbamoylmethyl]-iminodiaceto)manganese) was “dramatically reduced” and the “effect on hepatic and biliary T1 relaxation times” value (listed as dihydrogen bis(N-[N′-(2,6-dimethylphenyl)carbamoylmethyl]iminodiaceto)-manganese) was “dramatically reduces hepatic and biliary T1 relaxation times”.

Reference: patent publication US6797255B1, “Methods and compositions for enhancing magnetic resonance imaging” (Mallinckrodt Inc., priority 1985, dated 2004)
